From patent US6924309B2 (Children, Youth and Women's Health Service Incorporated, priority 1999, dated 2005)

What was measured:
[1] = Petri-dish thin film autoxidation of arachidonic acid with thia fatty acids and sulfides (HPLC)
Method: A stock solution in dichioromethane (2 ml) containing arachidonic acid 1 (18 mg) and 3-[(3Z,6Z)-nona-3,6dienylthio]propionic acid 106 (18 mg) was prepared with lauric acid (18 mg) as an internal standard. Samples of the stock solution (100 μl) were added to glass Petri-dishes followed by ethanol (400 μl). After evaporation of the solvent, a well-distributed thin film was formed on each Petri-dish. The Petri-dishes were placed in a desiccator, which was then evacuated, filled with oxygen and stored in the darkness. Dishes were removed from the desiccator after 1, 2, 3, 5 and 7 days. The mixture on each dish was redissolved in diethyl ether and transferred to a 2 ml vial. After evaporation of the solvent, the residue was dissolved in the HPLC mobile phase (100 μl) and 10% of the solution was analysed by HPLC using a reverse phase column (octadecylsilane) (4.6 mm×250 mm, 3 μm) and a refractive index detector.
Autoxidation of arachidonic acid was conducted in the presence of compound 19 and lauric acid. Stock solutions of arachidonic acid, compound 19 and lauric acid in dichloromethane with equal concentrations were added to a 25 ml round-bottomed flask, and the solvent was evaporated to leave a thin film on the internal surface of the flask. The flask was then filled with oxygen and kept in the dark. The percentages of arachidonic acid and compound 19 remaining after 7 days were measured by HPLC. The same assay was carried out simultaneously with several flasks but the results were not reproducible. The variation was attributed to differences in oxygen concentration and the surface area of the thin films formed in the flasks. Therefore, in order to establish a reproducible assay for the analysis of the autoxidation of arachidonic acid, Petri-dishes with uniform size (80 mm in diameter) were used instead of flasks for thin film formation and the oxidation was carried out by placing the Petri-dishes in a dessicator filled with oxygen. To assess this method, thin firms of arachidonic acid with lauric acid as a standard were prepared on six Petri-dishes using identical treatment, and then subjected to oxidation in the same dessicator filled with oxygen. After 24 h, the percentage of arachidonic acid recovered following autoxidation in each Petri-dish was determined by HPLC. […] The advantage of using a Petri-dish over a flask is that the thin films on each Petri-dish are spread over the same area, and each Petri-dish is exposed to oxygen to the same extent.
Using the Petri-dish assay method, the effects of the thia PUFAs and sulfides 106 and 108-111, along with compounds 18, 19 and 3-[(Z,Z,Z)-(octadeca-9,12,15-trienylthio)] propionic acid 112 which were available in the laboratory, on the autoxidation of arachidonic acid, were examined. In addition, the stability of these compounds in the presence of arachidonic acid was also investigated. Arachidonic acid and lauric acid as a standard were mixed with each sulfur compound at different ratios and the mixtures were subjected to thin film autoxidation. The mixtures were analysed by HPLC after 1,2,3,5 and 7 days.

[2] = Stability of thia fatty acids and sulfides as thin film under oxygen (1H NMR); type: physicochemical; details: darkness, up to six weeks
Method: Compounds 110 (4.3 mg) and 106 (6 mg) were each dissolved in 5 ml of dichloromethane and added into 250 ml one-neck flasks. Compound 18 (20 mg) and compounds 19, 108, 109 and 111-112 (14-20 mg) were each dissolved in 10 ml of dichloromethane and added into 500 ml flasks. The solvent dichloromethane was then evaporated with continuous rotation of the flasks, allowing the compounds to form thin films. The flasks were flushed with oxygen, sealed and kept in darkness. The compounds in the flasks were redissolved in chloroform-d and analysed by ^1H NMR every two weeks for up to six weeks.
To examine possible reasons for this lack of antioxidative activity, the chemical stability of compounds 18 and 109 in the absence of arachidonic acid was investigated. For comparison, the stability of compounds 19, 106, 108 and 110-112 was also examined. Each compound was studied as a thin film under oxygen as described above. Samples were removed and analysed by ^1H NMR spectroscopy regularly for up to six weeks. […] This is consistent with compound 109 decomposing in the presence of arachidonic acid, but not alone.

[3] = Thin film autoxidation of arachidonic acid with compounds 16-19 (HPLC)
Description: Subsequently, the autoxidation of compounds 16-19 and their effects on the autoxidation of arachidonic acid were investigated. In these experiments, a thin film assay method was employed. For each reaction, arachidonic acid was mixed with one of the synthetic compounds 16, 17, 18 or 19 at 1:1 ratio with or without the radical initiator, azobisisobutyronitrile (AIBN). A reverse phase HPLC method was used to simultaneously measure the relative amounts of arachidonic acid and the synthetic compounds 16, 17, 18 or 19 recovered following 60 or 70 hours or 7 days of thin film autoxidation.

[4] = Reaction with tert-butyl hydroperoxide to the sulfoxide; type: physicochemical; details: CH2Cl2, RT, after 9 h
Description: To further investigate the possible involvement of hydroperoxide-induced sulfoxide formation in the antioxidant behaviour of the γ-thia and β-thia fatty acids 18, 19, 106, 108, 109 and 112, compounds 108 and 109 (in a ratio of 1:1 in CH2Cl2) were allowed to react with tert-butyl hydroperoxide. [drawing 37]
The reaction was monitored by TLC and ^1H NMR analysis. […] The ^1H NMR spectrum of compound 114 contains two multiplets at δ2.88-3.07 and two doublets at δ3.63-3.86 corresponding to the methylene protons on the carbons adjacent to sulfur.

[5] = ratio arachidonic acid:compound 1:1, 1 day
[6] = ratio arachidonic acid:compound 1:1, 2 days
[7] = ratio arachidonic acid:compound 1:1, 3 days
[8] = ratio arachidonic acid:compound 1:1, 5 days
[9] = ratio arachidonic acid:compound 1:1, 7 days

Compound	Antioxidant effect on autoxidation of arachidonic acid (in words) [1]	Arachidonic acid (%) recovered following autoxidation in the presence of the compound [1, 5] [%]	Compound (%) recovered following autoxidation with arachidonic acid [1, 5] [%]	Arachidonic acid (%) recovered following autoxidation in the presence of the compound [1, 6] [%]	Compound (%) recovered following autoxidation with arachidonic acid [1, 6] [%]	Arachidonic acid (%) recovered following autoxidation in the presence of the compound [1, 7] [%]	Arachidonic acid (%) recovered following autoxidation in the presence of the compound [1, 8] [%]	Arachidonic acid (%) recovered following autoxidation in the presence of the compound [1, 9] [%]	Chemical stability in the absence of arachidonic acid [2]	Percentage of arachidonic acid recovered in the presence of the compound ([3]; ratio 1:1, 10% AIBN 60 h) [%]	Percentage of compound recovered (with arachidonic acid) ([3]; ratio 1:1, 10% AIBN 60 h) [%]	Percentage of arachidonic acid recovered in the presence of the compound ([3]; ratio 1:1, no additive 70 h) [%]	Percentage of compound recovered (with arachidonic acid) ([3]; ratio 1:1, no additive 70 h) [%]	Percentage of arachidonic acid recovered in the presence of the compound ([3]; ratio 1:1, no additive 7 day) [%]	Percentage of compound recovered (with arachidonic acid) ([3]; ratio 1:1, no additive 7 day) [%]	Autoxidation of arachidonic acid in the presence of the compound (in words) ([3]; ratio 1:1, with or without AIBN)	Compound (%) recovered following autoxidation with arachidonic acid [1, 7] [%]	Compound (%) recovered following autoxidation with arachidonic acid [1, 8] [%]	Compound (%) recovered following autoxidation with arachidonic acid [1, 9] [%]	Conversion to the sulfoxide by tert-butyl hydroperoxide [4]
CCCCC/C=C\C/C=C\C/C=C\C/C=C\CCCCSCC(=O)O [Compound 18, (all-Z)-(eicosa-5,8,11,14-tetraenylthio) acetic acid]	not significantly inhibited	68	26	29	7	10	7	5	decomposed after 7 days	87	57	98	99	68	28	substantial degree of autoxidation				
CCCCCCCCCCCCCCSCCC(=O)O [Compound 108]	effective antioxidants	98	99	93	91	79	30										86	44	37	completely converted
CCCCCCCCCCCCCCSCC(=O)O [Compound 109, 2-Tetradecylthioacetic acid]	not significantly inhibited	53	50	10	16												17	17	16	55%
